ChEMBL document CHEMBL3621115, “Discovery of 6-phenylimidazo[2,1-b]thiazole derivatives as a new type of FLT3 inhibitors” (Bioorg Med Chem Lett, 2015)
The source made the active and inactive calls. The rule behind the calls is not given here.

Assays:
[1] = molecular target: Tyrosine-protein kinase Lyn (Homo sapiens, UniProt P07948); test: Inhibition of human recombinant Lyn
[2] = molecular target: T1, Receptor-type tyrosine-protein kinase FLT3 (Homo sapiens, UniProt P36888); test: Inhibition of human recombinant Flt3
T1 sequence (P36888 whole entry): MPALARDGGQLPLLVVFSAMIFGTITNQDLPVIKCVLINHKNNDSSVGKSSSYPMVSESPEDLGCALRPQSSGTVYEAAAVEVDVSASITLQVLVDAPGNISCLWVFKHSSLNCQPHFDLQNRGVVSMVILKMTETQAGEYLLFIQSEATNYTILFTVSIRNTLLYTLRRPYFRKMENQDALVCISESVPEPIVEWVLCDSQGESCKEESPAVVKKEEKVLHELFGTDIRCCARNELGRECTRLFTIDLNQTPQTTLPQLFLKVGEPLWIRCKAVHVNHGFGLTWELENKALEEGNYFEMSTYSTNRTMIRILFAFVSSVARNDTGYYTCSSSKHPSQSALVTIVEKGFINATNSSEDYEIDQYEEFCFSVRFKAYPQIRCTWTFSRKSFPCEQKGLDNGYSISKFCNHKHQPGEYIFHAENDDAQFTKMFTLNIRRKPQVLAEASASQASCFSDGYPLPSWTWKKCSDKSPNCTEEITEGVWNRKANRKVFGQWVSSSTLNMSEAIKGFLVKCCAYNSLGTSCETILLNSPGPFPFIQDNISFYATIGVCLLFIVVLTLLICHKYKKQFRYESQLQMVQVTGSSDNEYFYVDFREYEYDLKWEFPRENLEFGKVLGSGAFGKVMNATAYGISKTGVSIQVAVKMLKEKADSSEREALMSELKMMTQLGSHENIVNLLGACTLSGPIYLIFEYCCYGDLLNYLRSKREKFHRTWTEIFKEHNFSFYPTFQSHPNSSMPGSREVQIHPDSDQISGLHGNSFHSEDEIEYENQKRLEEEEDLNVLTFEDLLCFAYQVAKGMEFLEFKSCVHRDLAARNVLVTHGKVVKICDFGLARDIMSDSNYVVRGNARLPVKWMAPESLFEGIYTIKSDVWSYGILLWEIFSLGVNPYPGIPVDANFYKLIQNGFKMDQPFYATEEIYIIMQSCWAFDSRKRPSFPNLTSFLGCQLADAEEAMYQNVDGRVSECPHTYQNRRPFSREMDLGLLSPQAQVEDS

[3] = molecular target: Macrophage colony-stimulating factor 1 receptor (Homo sapiens, UniProt P07333); test: Inhibition of human recombinant Fms
[4] = molecular target: Tyrosine-protein kinase Fes/Fps (Homo sapiens, UniProt P07332); test: Inhibition of human recombinant Fes
[5] = molecular target: Cyclin-dependent kinase 7 (Homo sapiens, UniProt P50613); test: Inhibition of human recombinant CDK7
[6] = molecular target: Serine/threonine-protein kinase/endoribonuclease IRE1 (Homo sapiens, UniProt O75460); test: Inhibition of human recombinant IRE1
[7] = molecular target: Cyclin-dependent kinase 2 (Homo sapiens, UniProt P24941); test: Inhibition of human recombinant CDK2
Raji = test: Cytotoxicity against human Raji cells assessed as cell viability after 72 hrs by MTT assay; format: functional, cell-based
MV4-11 = test: Cytotoxicity against human MV4-11 cells assessed as cell viability after 72 hrs by MTT assay; format: functional, cell-based; settings: MV4-11, 72 h
[8] = molecular target: Cytoplasmic tyrosine-protein kinase BMX (Homo sapiens, UniProt P51813); test: Inhibition of human recombinant Bmx
HeLa = test: Cytotoxicity against human HeLa cells assessed as cell viability after 72 hrs by MTT assay; format: functional, cell-based
[9] = molecular target: Epidermal growth factor receptor (Homo sapiens, UniProt P00533); test: Inhibition of human recombinant EGFR
[10] = Cytotoxicity against human PC9 cells assessed as cell viability after 72 hrs by MTT assay; format: functional, cell-based; settings: PC-9, 72 h
Ephrin type-B receptor 2 = Ephrin type-B receptor 2 (Homo sapiens, UniProt P29323); test: Inhibition of human recombinant EphB2
A549 = test: Cytotoxicity against human A549 cells assessed as cell viability after 72 hrs by MTT assay; format: functional, cell-based; settings: A549, 72 h
[11] = molecular target: Insulin-like growth factor 1 receptor (Homo sapiens, UniProt P08069); test: Inhibition of human recombinant IGF-1R
[12] = molecular target: Tyrosine-protein kinase SYK (Homo sapiens, UniProt P43405); test: Inhibition of human recombinant Syk
Myotonin-protein kinase = Myotonin-protein kinase (Homo sapiens, UniProt Q09013); test: Inhibition of human recombinant DMPK
[13] = molecular target: Vascular endothelial growth factor receptor 1 (Homo sapiens, UniProt P17948); test: Inhibition of human recombinant Flt1
[14] = molecular target: RAF proto-oncogene serine/threonine-protein kinase (Homo sapiens, UniProt P04049); test: Inhibition of human recombinant c-RAF
ZR-75-1 = test: Cytotoxicity against human ZR-75-1 cells assessed as cell viability after 72 hrs by MTT assay; format: functional, cell-based; settings: ZR-75-1, 72 h
[15] = molecular target: Tyrosine-protein kinase ABL1 (Homo sapiens, UniProt P00519); test: Inhibition of human recombinant Abl
NCI-H1975 = test: Cytotoxicity against human NCI-H1975 cells assessed as cell viability after 72 hrs by MTT assay; format: functional, cell-based; settings: NCI-H1975, 72 h
[16] = molecular target: Tyrosine-protein kinase ABL2 (Homo sapiens, UniProt P42684); test: Inhibition of human recombinant Arg
MDA-MB-231 = test: Cytotoxicity against human MDA-MB-231 cells assessed as cell viability after 72 hrs by MTT assay; format: functional, cell-based; settings: MDA-MB-231, 72 h
[17] = Cytotoxicity against human A875 cells assessed as cell viability after 72 hrs by MTT assay; format: functional, cell-based; settings: A875, 72 h
[18] = Cytotoxicity against human DLD1 cells assessed as cell viability after 72 hrs by MTT assay; format: functional, cell-based; settings: DLD-1, 72 h
[19] = Cytotoxicity against human Calu6 cells assessed as cell viability after 72 hrs by MTT assay; format: functional, cell-based; settings: Calu-6, 72 h
[20] = molecular target: Receptor-type tyrosine-protein kinase FLT3 (Homo sapiens) (UniProt P36888); test: Inhibition of FLT3 phosphorylation in human MV4-11 cells after 6 hrs by Western blotting analysis; format: cell-based
[21] = molecular target: Tyrosine-protein kinase Lck (Homo sapiens, UniProt P06239); test: Inhibition of human recombinant Lck
[22] = Cytotoxicity against human SKHEP1 cells assessed as cell viability after 72 hrs by MTT assay; format: functional, cell-based; settings: SK-HEP1, 72 h
HepG2 = test: Cytotoxicity against human HepG2 cells assessed as cell viability after 72 hrs by MTT assay; format: functional, cell-based; settings: HepG2, 72 h
[23] = molecular target: Vascular endothelial growth factor receptor 2 (Homo sapiens, UniProt P35968); test: Inhibition of human recombinant KDR
[24] = Cytotoxicity against human OCI-LY19 cells assessed as cell viability after 72 hrs by MTT assay; format: functional, cell-based; settings: OCI-LY19, 72 h
[25] = molecular target: Receptor-type tyrosine-protein kinase FLT3 (Homo sapiens) (UniProt P36888); test: Inhibition of FLT3 in human MV4-11 cells assessed as down regulation of STAT5 phosphorylation at >0.001 uM after 6 hrs by Western blotting analysis; format: cell-based

RAF proto-oncogene serine/threonine-protein kinase, sequence (P04049 whole entry): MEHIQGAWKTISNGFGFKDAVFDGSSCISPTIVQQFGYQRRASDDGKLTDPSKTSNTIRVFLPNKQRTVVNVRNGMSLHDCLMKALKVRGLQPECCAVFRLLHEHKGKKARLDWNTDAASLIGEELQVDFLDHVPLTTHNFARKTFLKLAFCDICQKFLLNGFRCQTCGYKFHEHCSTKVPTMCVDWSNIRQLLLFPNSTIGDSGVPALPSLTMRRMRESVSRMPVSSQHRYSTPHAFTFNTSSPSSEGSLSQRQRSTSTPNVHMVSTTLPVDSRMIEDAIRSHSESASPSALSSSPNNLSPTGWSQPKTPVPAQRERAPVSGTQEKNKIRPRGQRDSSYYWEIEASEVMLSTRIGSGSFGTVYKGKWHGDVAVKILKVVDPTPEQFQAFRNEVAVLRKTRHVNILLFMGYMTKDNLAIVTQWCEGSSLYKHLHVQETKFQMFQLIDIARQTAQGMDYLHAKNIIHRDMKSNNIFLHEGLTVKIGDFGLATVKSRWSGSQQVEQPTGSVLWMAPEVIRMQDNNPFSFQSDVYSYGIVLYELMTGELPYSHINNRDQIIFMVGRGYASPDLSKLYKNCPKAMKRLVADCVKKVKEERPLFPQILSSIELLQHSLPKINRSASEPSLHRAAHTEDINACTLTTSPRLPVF
Tyrosine-protein kinase Lck, sequence (P06239 whole entry): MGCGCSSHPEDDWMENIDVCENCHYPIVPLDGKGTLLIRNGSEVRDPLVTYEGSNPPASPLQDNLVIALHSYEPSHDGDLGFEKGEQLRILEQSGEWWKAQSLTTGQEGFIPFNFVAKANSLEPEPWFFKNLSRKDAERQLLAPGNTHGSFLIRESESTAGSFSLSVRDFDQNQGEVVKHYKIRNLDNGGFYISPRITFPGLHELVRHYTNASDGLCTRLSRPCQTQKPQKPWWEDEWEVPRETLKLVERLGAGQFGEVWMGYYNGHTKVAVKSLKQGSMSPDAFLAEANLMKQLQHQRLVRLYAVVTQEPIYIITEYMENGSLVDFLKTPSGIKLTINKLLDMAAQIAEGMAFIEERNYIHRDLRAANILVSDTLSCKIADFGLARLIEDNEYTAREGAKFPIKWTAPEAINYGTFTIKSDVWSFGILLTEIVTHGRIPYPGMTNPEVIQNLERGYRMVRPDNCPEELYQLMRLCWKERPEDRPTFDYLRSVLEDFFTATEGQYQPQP
Cytoplasmic tyrosine-protein kinase BMX, sequence (P51813 whole entry): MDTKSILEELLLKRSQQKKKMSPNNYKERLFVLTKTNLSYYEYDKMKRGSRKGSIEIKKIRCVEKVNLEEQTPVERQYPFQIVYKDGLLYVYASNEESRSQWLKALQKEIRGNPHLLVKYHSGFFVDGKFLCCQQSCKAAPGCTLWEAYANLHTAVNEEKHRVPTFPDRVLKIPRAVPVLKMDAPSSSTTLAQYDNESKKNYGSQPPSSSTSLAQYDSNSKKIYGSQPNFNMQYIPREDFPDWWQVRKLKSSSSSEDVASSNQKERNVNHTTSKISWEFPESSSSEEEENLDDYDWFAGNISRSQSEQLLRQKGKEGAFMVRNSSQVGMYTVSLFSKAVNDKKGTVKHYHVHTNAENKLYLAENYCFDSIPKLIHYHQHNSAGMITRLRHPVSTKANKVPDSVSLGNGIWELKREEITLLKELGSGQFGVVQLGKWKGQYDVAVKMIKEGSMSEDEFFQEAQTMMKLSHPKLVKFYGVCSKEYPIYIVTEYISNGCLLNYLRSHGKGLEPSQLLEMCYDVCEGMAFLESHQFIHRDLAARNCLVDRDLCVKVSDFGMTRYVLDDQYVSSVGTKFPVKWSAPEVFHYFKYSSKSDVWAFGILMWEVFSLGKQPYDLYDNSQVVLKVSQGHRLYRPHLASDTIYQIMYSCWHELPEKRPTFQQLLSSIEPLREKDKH
Tyrosine-protein kinase Fes/Fps, sequence (P07332 whole entry): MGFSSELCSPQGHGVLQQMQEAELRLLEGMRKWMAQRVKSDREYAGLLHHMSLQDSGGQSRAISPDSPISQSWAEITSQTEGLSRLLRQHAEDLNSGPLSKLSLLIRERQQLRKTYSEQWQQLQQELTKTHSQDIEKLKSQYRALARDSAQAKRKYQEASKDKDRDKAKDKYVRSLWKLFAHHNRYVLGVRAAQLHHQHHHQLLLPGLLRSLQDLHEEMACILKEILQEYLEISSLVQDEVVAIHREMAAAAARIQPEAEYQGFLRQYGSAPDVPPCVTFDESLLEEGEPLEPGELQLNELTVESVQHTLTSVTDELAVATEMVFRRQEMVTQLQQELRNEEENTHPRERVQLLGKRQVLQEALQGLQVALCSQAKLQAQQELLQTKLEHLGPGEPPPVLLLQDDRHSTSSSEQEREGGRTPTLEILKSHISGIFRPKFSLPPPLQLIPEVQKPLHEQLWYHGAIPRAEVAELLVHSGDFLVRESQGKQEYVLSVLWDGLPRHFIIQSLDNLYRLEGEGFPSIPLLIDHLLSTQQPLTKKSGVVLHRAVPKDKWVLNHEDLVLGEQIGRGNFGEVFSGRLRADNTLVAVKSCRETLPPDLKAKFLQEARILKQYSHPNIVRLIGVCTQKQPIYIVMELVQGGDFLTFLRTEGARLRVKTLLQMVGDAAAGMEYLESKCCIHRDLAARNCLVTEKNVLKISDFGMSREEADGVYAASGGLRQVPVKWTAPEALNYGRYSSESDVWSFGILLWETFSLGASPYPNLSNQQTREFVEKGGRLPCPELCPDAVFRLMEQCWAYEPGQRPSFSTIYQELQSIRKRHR
Epidermal growth factor receptor, sequence (P00533 whole entry): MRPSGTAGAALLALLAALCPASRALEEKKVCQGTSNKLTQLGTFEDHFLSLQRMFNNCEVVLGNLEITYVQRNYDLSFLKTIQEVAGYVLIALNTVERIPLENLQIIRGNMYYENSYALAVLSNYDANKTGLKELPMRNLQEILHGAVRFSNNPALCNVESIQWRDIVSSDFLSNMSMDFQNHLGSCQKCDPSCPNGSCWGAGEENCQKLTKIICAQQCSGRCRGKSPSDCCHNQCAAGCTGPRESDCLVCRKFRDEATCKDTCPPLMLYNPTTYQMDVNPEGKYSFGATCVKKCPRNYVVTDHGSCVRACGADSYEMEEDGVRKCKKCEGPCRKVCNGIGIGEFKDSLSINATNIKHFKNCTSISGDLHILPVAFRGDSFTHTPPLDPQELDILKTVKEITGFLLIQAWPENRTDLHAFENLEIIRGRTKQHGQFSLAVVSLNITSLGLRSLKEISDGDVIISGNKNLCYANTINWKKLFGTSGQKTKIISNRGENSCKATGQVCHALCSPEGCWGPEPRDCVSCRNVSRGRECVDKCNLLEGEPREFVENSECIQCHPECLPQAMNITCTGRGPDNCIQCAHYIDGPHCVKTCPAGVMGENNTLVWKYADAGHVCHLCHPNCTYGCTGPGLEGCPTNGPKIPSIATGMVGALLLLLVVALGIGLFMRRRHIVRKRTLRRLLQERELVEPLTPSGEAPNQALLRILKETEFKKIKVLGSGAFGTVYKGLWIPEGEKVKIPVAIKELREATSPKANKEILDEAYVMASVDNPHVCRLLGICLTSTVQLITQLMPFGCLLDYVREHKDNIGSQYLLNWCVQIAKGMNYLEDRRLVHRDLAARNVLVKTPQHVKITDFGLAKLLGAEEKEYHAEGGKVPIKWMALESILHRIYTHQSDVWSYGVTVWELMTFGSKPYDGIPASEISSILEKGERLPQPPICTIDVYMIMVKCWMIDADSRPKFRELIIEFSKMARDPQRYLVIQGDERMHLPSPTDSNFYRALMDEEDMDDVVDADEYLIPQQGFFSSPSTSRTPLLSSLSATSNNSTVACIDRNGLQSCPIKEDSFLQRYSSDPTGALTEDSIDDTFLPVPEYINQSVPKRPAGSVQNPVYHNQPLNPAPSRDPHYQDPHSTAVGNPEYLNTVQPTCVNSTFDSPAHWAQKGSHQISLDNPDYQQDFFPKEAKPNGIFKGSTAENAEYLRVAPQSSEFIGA
Myotonin-protein kinase, sequence (Q09013 whole entry): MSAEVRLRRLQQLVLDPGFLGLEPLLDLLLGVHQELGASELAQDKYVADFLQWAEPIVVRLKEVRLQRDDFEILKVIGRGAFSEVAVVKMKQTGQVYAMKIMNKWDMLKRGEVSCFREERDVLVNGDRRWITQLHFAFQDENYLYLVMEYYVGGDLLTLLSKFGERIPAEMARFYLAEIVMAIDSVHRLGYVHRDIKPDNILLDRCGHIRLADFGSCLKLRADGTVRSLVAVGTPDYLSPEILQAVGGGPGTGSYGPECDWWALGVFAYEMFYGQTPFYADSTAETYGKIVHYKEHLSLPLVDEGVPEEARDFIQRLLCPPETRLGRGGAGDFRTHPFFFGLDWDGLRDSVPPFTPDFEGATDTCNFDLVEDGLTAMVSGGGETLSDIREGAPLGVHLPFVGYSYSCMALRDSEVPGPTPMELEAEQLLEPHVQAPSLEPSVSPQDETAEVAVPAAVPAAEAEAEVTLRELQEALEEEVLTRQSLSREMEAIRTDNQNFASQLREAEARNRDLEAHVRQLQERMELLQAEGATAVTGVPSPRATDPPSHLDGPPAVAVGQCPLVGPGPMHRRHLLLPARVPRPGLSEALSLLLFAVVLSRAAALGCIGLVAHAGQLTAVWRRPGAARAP
Tyrosine-protein kinase Lyn, sequence (P07948 whole entry): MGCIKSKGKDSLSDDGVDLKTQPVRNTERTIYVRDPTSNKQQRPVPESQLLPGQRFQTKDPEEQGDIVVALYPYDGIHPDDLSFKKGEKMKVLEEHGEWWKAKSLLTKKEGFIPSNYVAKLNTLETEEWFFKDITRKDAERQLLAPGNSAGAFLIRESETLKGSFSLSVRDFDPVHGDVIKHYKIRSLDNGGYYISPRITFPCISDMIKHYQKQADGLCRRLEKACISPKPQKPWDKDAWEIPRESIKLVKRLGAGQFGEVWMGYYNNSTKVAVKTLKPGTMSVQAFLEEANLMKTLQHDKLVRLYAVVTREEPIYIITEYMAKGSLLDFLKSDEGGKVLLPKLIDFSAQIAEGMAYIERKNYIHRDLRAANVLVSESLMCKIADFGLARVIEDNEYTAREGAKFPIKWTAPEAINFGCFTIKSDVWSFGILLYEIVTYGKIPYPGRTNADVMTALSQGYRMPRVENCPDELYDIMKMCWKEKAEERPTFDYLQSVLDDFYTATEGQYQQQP

- IC50 [1]: > 10 µM
- IC50 [2]: 22 nM
- IC50 [3]: 43 nM
- IC50 [4]: > 10 µM
- IC50 [5]: > 10 µM
- IC50 [6]: > 10 µM
- IC50 [7]: > 10 µM
- IC50 [8]: > 10 µM
- IC50 [9]: > 10 µM
- IC50 (Ephrin type-B receptor 2): > 10 µM
- IC50 [11]: > 10 µM
- IC50 [12]: > 10 µM
- IC50 (Myotonin-protein kinase): > 10 µM
- IC50 [13]: 2830 nM
- IC50 [14]: > 10 µM
- IC50 [15]: > 10 µM
- IC50 [16]: > 10 µM
- inhibition [20]: Dose-dependent effect
- IC50 [21]: > 10 µM
- IC50 [23]: 2460 nM
- inhibition [25]: Active
Structure (SMILES): CN(C)CCCNC(=O)c1csc2nc(-c3ccc(NC(=O)Nc4cc(C(C)(C)C)on4)cc3)cn12
- IC50 (Raji): > 10 µM
- IC50 (MV4-11): 2 nM
- IC50 (HeLa): 20 µM
- IC50 [10]: > 10 µM
- IC50 (A549): 10 µM
- IC50 (ZR-75-1): > 10 µM
- IC50 (NCI-H1975): > 10 µM
- IC50 (MDA-MB-231): 10 µM
- IC50 [17]: 10 µM
- IC50 [18]: 10 µM
- IC50 [19]: 10 µM
- IC50 [22]: 10 µM
- IC50 (HepG2): 10 µM
- IC50 [24]: 3.3 µM
